A word on the IC50: it is the concentration needed to halve the response being measured. What is called melting point is the temperature of the solid-liquid transition.

The record followed here is US7919623B2, “Naphthyridine derivatives having inhibitory activity against HIV integrase” (Shionogi & Co., Ltd., priority 2004, dated 2011).

Data set [1] concerns the target HIV integrase (Human immunodeficiency virus type 1 group M subtype B, UniProt P04585). As to the kind of experiment: biochemical.
Description: The inhibitory activities against integrase were determined by the assay described below. • (1) Preparation of DNA Solutions
Before using the DNA solutions, complementary chains were annealed by slowly cooling after boiling.
Streptavidin, obtained from Vector Laboratories, was dissolved in 0.1 M carbonate buffer (composition: 90 mM Na2CO3, 10 mM NaHCO3) at concentration of 40 μg/ml. After coating each well of immunoplates (obtained from NUNC) with 50 μl of the above solution at 4° C. over night, each well was washed twice with PBS (composition: 13.7 mM NaCl, 0.27 mM KCl, 0.43 mM Na2HPO4, 0.14 mM KH2PO4) and blocked with 300 μl of 1% skim milk in PBS for 30 min. Additionally, each well was washed twice with PBS and added 50 μl of substrate DNA solution (2 pmol/μl). The immunoplates were kept at room temperature for 30 min while shaking. Then, each well was washed twice with PBS and once with the distilled water.
Subsequently, in the each well prepared above were added 51 μl of the reaction solution prepared from 12 μl of the buffer (composition: 150 mM MOPS (pH7.2), 75 mM MnCl2, 50 mM 2-mercaptoethanol, 25% glycerol, 500 μg/ml bovine serum albumin-fraction V), and 39 μl of the distilled water. Then 9 μl of an integrase solution (30 pmol) was added and mixed well. In the well of negative control (NC) was added 9 μl of the integrase dilution buffer (composition: 20 mM MOPS (pH7.2), 400 mM potassium glutamate, 1 mM EDTA, 0.1% NP-40, 20% glycerol, 1 mM DTT, 4M urea), and mixed well using a plate mixer.
The plates were incubated at 30° C. for 60 minutes. The reaction solution was removed and washed three times with 250 μl of washing buffer (composition: 150 mM MOPS (pH7.2), 50 mM 2-mercaptoethanol, 25% glycerol, 500 μg/ml bovine serum albumin-fraction V).
Then each well was added with 53 μl of reaction solution prepared from 12 μl of buffer (composition: 150 mM MOPS (pH7.2), 75 mM MgCl2, 50 mM 2-mercaptoethanol, 25% glycerol, 500 μg/ml bovine serum albumin-fraction V) and 41 μl of distilled water. Further, each well was added with 6 μl of DMSO solution of a compound to be tested, and the well of positive control (PC) was added with 6 μl of DMSO, and mixed well by a plate mixer. After incubating the plate for 30 minutes at 30° C., was added 1 μl of target DNA (5 pmol/μl), and mixed well by a plate mixer.
After incubation for 10 minutes at 30° C., each plate was washed twice with PBS after removal of the reaction solution. Then, 100 μl of ×2000 diluted solution of anti-digoxigenin antibody labeled with alkaline phosphatase (sheep Fab fragment: Boehringer) was added allowed to bind for 1 hour at 30° C., and washed twice with PBS containing 0.05% Tween20 and once with PBS in this sequence. Next, 150 μl of the Alkaline phosphatase coloring buffer (composition: 10 mM p-Nitrophenylphosphate (obtained from Vector Laboratories), 5 mM MgCl2, 100 mM NaCl, 100 mM Tris-HCl (pH 9.5)) was added and allowed to react for 2 hours at 30° C. Then the reaction was terminated by the addition of 50 μl of 1N NaOH solution. The optical density at 405 nm (OD405nm) of each well was measured and the inhibition rate (IC50) was determined by the following expression. The inhibition rate(%)=100[1−{(C abs.−NC abs.)/(PC abs.−NC abs.)}]
C abs.; the OD of the well of the compound
NC abs.: the OD of the negative control (NC)
PC abs.: the OD of the positive control (PC)

As for `COCC(=O)Nc1nc(C(=O)NCCC(=O)OC)c(O)c2ncc(Cc3ccc(F)cc3)cc12` [Example B-15, Methyl 3-([3-(4-fluorobenzyl)-8-hydroxy-5-(2-methoxyacetylamino)[1,6]naphthyridine-7-carbonyl]amino)propionate], the melting point was in the range of 168 to 170 °C. Moreover, the IC50 in data set [1] is 44.6 nM.

With `COCCCNC(=O)c1nc(NC(=O)COC)c2cc(Cc3ccc(F)cc3)cnc2c1O` [Example B-5, 3-(4-fluorobenzyl)-8-hydroxy-5-(2-methoxyacetylamino)[1,6]naphthyridine-7-carboxylic acid (3-methoxypropyl) amide], the melting point fell in the range of 159 to 160 °C. In addition, the IC50 in data set [1] was 39.4 nM.

Take `COCCNC(=O)c1nc(C(C)O)c2cc(Cc3ccc(F)cc3)cnc2c1O` (centres unmarked) [Example B-3, 3-(4-fluorobenzyl)-8-hydroxy-5-(1-hydroxyethyl)[1,6]naphthyridine-7-carboxylic acid (2-methoxyethyl) amide]: the melting point is 179 °C. In addition, it took 17 nM to reach half-maximal inhibition in data set [1] (IC50).

In turn, `COCCNC(=O)c1nc(C(=O)OC)c2cc(Cc3ccc(F)cc3)cnc2c1O` [Example A-1, Methyl 3-(4-fluorobenzyl)-8-hydroxy-7-(2-methoxyethylcarbamoyl) [1,6]naphthyridine-5-carbonate] registered a melting point of 168 to 169 °C. Moreover, the IC50 in data set [1] was 5.81 nM.

Consider `COCCN(C)C(=O)c1nc(NC(=O)COC)c2cc(Cc3ccc(F)cc3)cnc2c1O` [Example B-16, 3-(4-fluorobenzyl)-8-hydroxy-5-(2-methoxyacetylamino)[1,6]naphthyridine-7-carboxylic acid (2-methoxyethyl)methylamide], for which the melting point fell in the range of 66 to 68 °C. The same compound gave a half-maximal inhibitory concentration (IC50) in data set [1] of 57 nM.

Compound `COCCNC(=O)C(=O)Nc1nc(C(=O)NN(C)C)c(O)c2ncc(Cc3ccc(F)cc3)cc12` [Example B-25, N-[7-(N′,N′-dimethylhydrazinocarbonyl)-3-(4-fluorobenzyl)-8-hydroxy[1,6]naphthyridine-5-yl]-N′-(2-methoxyethyl)oxalamide] came in with a melting point of 167 to 169 °C.

As for `COCC=Cc1nc(C(=O)NN(C)C)c(O)c2ncc(Cc3ccc(F)cc3)cc12` [Example B-19, 3-(4-fluorobenzyl)-8-hydroxy-5-(3-methoxypropenyl)[1,6]naphthyridine-7-carboxylic acid N′,N′-dimethylhydrazide], the melting point fell in the range of 115 to 116 °C. Also, the midpoint of inhibition in data set [1], the IC50, lay at 11.2 nM.

As to `COCC(=O)Nc1nc(C(=O)NCCOC(C)C)c(O)c2ncc(Cc3ccc(F)cc3)cc12` [Example B-7, 3-(4-fluorobenzyl)-8-hydroxy-5-(2-methoxyacetylamino)[1,6]naphthyridine-7-carboxylic acid (2-isopropoxyethyl)amide], the melting point was in the range of 149 to 150 °C. Moreover, 31.9 nM corresponded to half-maximal inhibition in data set [1] (IC50).

`Cc1nc(C(=O)NN(C)C)c(O)c2ncc(Cc3ccc(F)cc3)cc12` [Example B-17, 3-(4-fluorobenzyl)-8-hydroxy-5-methyl[1,6]naphthyridine-7-carboxylic acid N′,N′-dimethylhydrazide]: the melting point fell in the range of 137 to 139 °C. Further, the IC50 in data set [1] is 16.9 nM.

For the compound `CC(O)c1nc(C(=O)NN(C)C)c(O)c2ncc(Cc3ccc(F)cc3)cc12` (centres unmarked) [Example B-18, 3-(4-fluorobenzyl)-8-hydroxy-5-(1-hydroxyethyl)[1,6]naphthyridine-7-carboxylic acid N′,N′-dimethylhydrazide], the melting point lay in the range of 114 to 116 °C. For the same compound, the half-inhibitory concentration (IC50) in data set [1] is 44.2 nM.

`COCC=Cc1nc(C(=O)NCCOC)c(O)c2ncc(Cc3ccc(F)cc3)cc12` [Example B-4, 3-(4-fluorobenzyl)-8-hydroxy-5-(3-methoxypropenyl)[1,6]naphthyridine-7-carboxylic acid (2-methoxyethyl)amide] returned a melting point of 125 to 126 °C. The same compound showed an IC50 in data set [1] of 11.3 nM.

For `COCCNC(=O)c1nc(C(=O)OC2CCN(C(C)=O)CC2)c2cc(Cc3ccc(F)cc3)cnc2c1O` [Example A-6, 3-(4-fluorobenzyl)-8-hydroxy-7-(2-methoxyethylcarbamoyl)[1,6]naphthyridine-5-carboxylic acid 1-acetylpiperidine-4-yl ester], the melting point is 92 to 94 °C.

The compound `COCC(=O)Nc1nc(C(=O)NCCC#N)c(O)c2ncc(Cc3ccc(F)cc3)cc12` [Example B-8, 3-(4-fluorobenzyl)-8-hydroxy-5-(2-methoxyacetylamino)[1,6]naphthyridine-7-carboxylic acid (2-cyanoethyl)amide] gave a melting point of 173 to 175 °C. In addition, half-maximal inhibition in data set [1] (IC50) was put at 27.4 nM.

In turn, `CN(C)NC(=O)c1nc(NC(=O)C(=O)N(C)C)c2cc(Cc3ccc(F)cc3)cnc2c1O` [Example B-26, N-[7-(N′,dimethylhydrazinocarbonyl)-3-(4-fluorobenzyl)-8-hydroxy[1,6]naphthyridine-5-yl]-N′,N′-dimethyl oxalamide] yielded a melting point of 125 to 128 °C.

The compound `CCOCCNC(=O)c1nc(NC(=O)COC)c2cc(Cc3ccc(F)cc3)cnc2c1O` [Example B-14, 3-(4-fluorobenzyl)-8-hydroxy-5-(2-methoxyacetylamino)[1,6]naphthyridine-7-carboxylic acid (2-ethoxyethyl)amide] showed a melting point of 175 to 177 °C. For the same compound, in data set [1], the IC50 was 48.2 nM.

Consider `COCCNC(=O)c1nc(NC(C)=O)c2cc(Cc3ccc(F)cc3)cnc2c1O` [Example A-2, 5-acetylamino-3-(4-fluorobenzyl)-8-hydroxy[1,6]naphthyridine-7-carboxylic acid 2-methoxyethyl amide], for which the melting point lay in the range of 216 to 217 °C. Besides, the IC50 in data set [1] was 46.1 nM.

`COCCNC(=O)c1nc(C(=O)OCCOC)c2cc(Cc3ccc(F)cc3)cnc2c1O` [Example A-5, 3-(4-fluorobenzyl)-8-hydroxy-7-(2-methoxyethylcarbamoyl)[1,6]naphthyridine-5-carboxylic acid 2-methoxyethyl ester] came in with a melting point of 139 to 141 °C.

For `COCC=Cc1nc(C(=O)NCCN(C)C)c(O)c2ncc(Cc3ccc(F)cc3)cc12.Cl.O` (hydrate or solvate) [Example B-20, 3-(4-fluorobenzyl)-8-hydroxy-5-(3-methoxypropenyl)[1,6]naphthyridine-7-carboxylic acid (2-dimethylaminoethyl)amide hydrochloride monohydrate], the melting point lay in the range of 156 to 158 °C.

Regarding `COCC(=O)Nc1nc(C(=O)NC(C)C(=O)OC)c(O)c2ncc(Cc3ccc(F)cc3)cc12` (centres unmarked) [Example B-11, Methyl 2-{[3-(4-fluorobenzyl)-8-hydroxy-5-(2-methoxyacetylamino)[1,6]naphthyridine-7-carbonyl]amino}propionate], the melting point lay in the range of 181 to 182 °C. The half-inhibitory concentration (IC50) in data set [1] was 51 nM.

In the case of `COCCNC(=O)c1nc(C)c2cc(Cc3ccc(F)cc3)cnc2c1O` [Example B-2, 3-(4-fluorobenzyl)-8-hydroxy-5-methyl[1,6]naphthyridine-7-carboxylic acid (2-methoxyethyl)amide], the melting point was in the range of 167 to 168 °C. In addition, the IC50 in data set [1] was 20 nM.

`CNC(=O)C(=O)Nc1nc(C(=O)NC(C)CO)c(O)c2ncc(Cc3ccc(F)cc3)cc12` (centres unmarked) [Example B-28, N-[3-(4-fluorobenzyl)-8-hydroxy-7-(2-hydroxy-1-methylethylcarbamoyl)[1,6]naphthyridine-5-yl]-N′-methyl oxalamide]: the melting point is 131 to 133 °C.

Take `COCC(=O)Nc1nc(C(=O)NCCN(C(C)C)C(C)C)c(O)c2ncc(Cc3ccc(F)cc3)cc12` [Example B-6, 3-(4-fluorobenzyl)-8-hydroxy-5-(2-methoxyacetylamino)[1,6]naphthyridine-7-carboxylic acid (2-diisopropylaminoethyl)amide]: the melting point fell in the range of 69 to 70 °C. This compound also gave an IC50 in data set [1] of 141 nM.
